The record followed here is PubChem BioAssay AID1259407 (Chemical Carcinogenesis Research Information System (CCRIS), 2018).

For the data set, the system named is CCRIS mutagenicity, Ames/micronucleus/aberration tests. The experiment in a line: CCRIS mutagenicity studies.
[1] abbreviates: Test System: AMES SALMONELLA TYPHIMURIUM, Strain/Indicator: TA98, Metabolic Activation: NONE, Method: PREINCUBATION
The mark [2] stands for this setting: Test System: AMES SALMONELLA TYPHIMURIUM, Strain/Indicator: TA100, Metabolic Activation: NONE, Method: PREINCUBATION
[3] abbreviates: Test System: AMES SALMONELLA TYPHIMURIUM, Strain/Indicator: TA1538, Metabolic Activation: RAT, LIVER, S-9, AROCLOR 1254, Method: STANDARD PLATE.
The mark [4] stands for this setting: Test System: MOUSE LYMPHOMA, Strain/Indicator: L5178Y (TK+/TK-), Metabolic Activation: NONE, Method: SUSPENSION/PLATE.
Where [5] appears, read: Test System: MOUSE LYMPHOMA, Strain/Indicator: L5178Y (TK+/TK-), Metabolic Activation: RAT, LIVER, S-9, AROCLOR 1254, Method: SUSPENSION/PLATE.

Active and inactive are the calls of the source. The rule behind the calls is not given here.

Turning to `CCC1(c2ccccc2)C(=O)NC(=O)NC1=O`, the mutagenic call is “inactive; negative” (Test System: AMES SALMONELLA TYPHIMURIUM, Strain/Indicator: TA97, Metabolic Activation: HAMSTER LIVER S-9, AROCLOR 1254 (10%), Method: PREINCUBATION); “inactive; negative” (Test System: AMES SALMONELLA TYPHIMURIUM, Strain/Indicator: TA97, Metabolic Activation: NONE, Method: PREINCUBATION); “inactive; negative” (Test System: AMES SALMONELLA TYPHIMURIUM, Strain/Indicator: TA97, Metabolic Activation: NONE, Method: STANDARD PLATE); “inactive; negative” (Test System: AMES SALMONELLA TYPHIMURIUM, Strain/Indicator: TA97, Metabolic Activation: RAT LIVER S-9, AROCLOR 1254 (10%), Method: PREINCUBATION); “inactive; negative” (Test System: AMES SALMONELLA TYPHIMURIUM, Strain/Indicator: TA97, Metabolic Activation: S-9, Method: STANDARD PLATE); “inactive; negative” (Test System: AMES SALMONELLA TYPHIMURIUM, Strain/Indicator: TA98, Metabolic Activation: HAMSTER LIVER S-9, AROCLOR 1254 (10%), Method: PREINCUBATION). Besides, the mutagenic call was “inactive; negative” under setting [1]; “inactive; negative” (Test System: AMES SALMONELLA TYPHIMURIUM, Strain/Indicator: TA98, Metabolic Activation: NONE, Method: STANDARD PLATE); “inactive; negative” (Test System: AMES SALMONELLA TYPHIMURIUM, Strain/Indicator: TA98, Metabolic Activation: RAT LIVER S-9, AROCLOR 1254 (10%), Method: PREINCUBATION); “inactive; negative” (Test System: AMES SALMONELLA TYPHIMURIUM, Strain/Indicator: TA98, Metabolic Activation: RAT, LIVER, S-9, AROCLOR 1254, Method: STANDARD PLATE); “inactive; negative” (Test System: AMES SALMONELLA TYPHIMURIUM, Strain/Indicator: TA98, Metabolic Activation: S-9, Method: STANDARD PLATE); “inactive; negative” (Test System: AMES SALMONELLA TYPHIMURIUM, Strain/Indicator: TA100, Metabolic Activation: HAMSTER LIVER S-9, AROCLOR 1254 (10%), Method: PREINCUBATION). In addition, the mutagenic call reads like this: under setting [2], “inactive; negative”; (Test System: AMES SALMONELLA TYPHIMURIUM, Strain/Indicator: TA100, Metabolic Activation: NONE, Method: STANDARD PLATE) “inactive; negative”; (Test System: AMES SALMONELLA TYPHIMURIUM, Strain/Indicator: TA100, Metabolic Activation: RAT LIVER S-9, AROCLOR 1254 (10%), Method: PREINCUBATION) “inactive; negative”; (Test System: AMES SALMONELLA TYPHIMURIUM, Strain/Indicator: TA100, Metabolic Activation: RAT, LIVER, S-9, AROCLOR 1254, Method: STANDARD PLATE) “inactive; negative”; (Test System: AMES SALMONELLA TYPHIMURIUM, Strain/Indicator: TA100, Metabolic Activation: S-9, Method: STANDARD PLATE) “inactive; negative”; (Test System: AMES SALMONELLA TYPHIMURIUM, Strain/Indicator: TA102, Metabolic Activation: NONE, Method: STANDARD PLATE) “inactive; negative”. The mutagenic call (Test System: AMES SALMONELLA TYPHIMURIUM, Strain/Indicator: TA102, Metabolic Activation: S-9, Method: STANDARD PLATE) is “inactive; negative”; the mutagenic call (Test System: AMES SALMONELLA TYPHIMURIUM, Strain/Indicator: TA1535, Metabolic Activation: HAMSTER LIVER S-9, AROCLOR 1254 (10%), Method: PREINCUBATION) is “inactive; negative”; the mutagenic call (Test System: AMES SALMONELLA TYPHIMURIUM, Strain/Indicator: TA1535, Metabolic Activation: NONE, Method: STANDARD PLATE) was “active; positive”; the mutagenic call (Test System: AMES SALMONELLA TYPHIMURIUM, Strain/Indicator: TA1535, Metabolic Activation: RAT LIVER S-9, AROCLOR 1254 (5 OR 10%), Method: PREINCUBATION) was “inactive; negative”; the mutagenic call (Test System: AMES SALMONELLA TYPHIMURIUM, Strain/Indicator: TA1535, Metabolic Activation: RAT, LIVER, S-9, AROCLOR 1254, Method: STANDARD PLATE) is “inactive; negative”; the mutagenic call (Test System: AMES SALMONELLA TYPHIMURIUM, Strain/Indicator: TA1537, Metabolic Activation: NONE, Method: STANDARD PLATE) is “inactive; negative”. Moreover, the mutagenic call was “inactive; negative” (Test System: AMES SALMONELLA TYPHIMURIUM, Strain/Indicator: TA1537, Metabolic Activation: RAT, LIVER, S-9, AROCLOR 1254, Method: STANDARD PLATE); “inactive; negative” (Test System: AMES SALMONELLA TYPHIMURIUM, Strain/Indicator: TA1538, Metabolic Activation: NONE, Method: STANDARD PLATE); “inactive; negative” under setting [3]; “active; positive” (Test System: CHINESE HAMSTER V-79, Strain/Indicator: V-79/6-THIOGUANINE, Metabolic Activation: NONE, Method: REPLATING); “inactive; negative” (Test System: MOUSE LYMPHOMA, Strain/Indicator: L5178Y (TK+/-)/TRIFLUROTHYMIDINE, Metabolic Activation: NONE, Method: SUSPENSION/PLATE); “inactive; negative” under setting [4]. The mutagenic call is “active; positive” under setting [5]; “inactive; negative” (Test System: MOUSE LYMPHOMA, Strain/Indicator: L5178Y (TK+/TK-), Metabolic Activation: RAT, LIVER, S-9, Method: SUSPENSION/PLATE); “inactive; negative” (Test System: UDS RAT HEPATOCYTES, Strain/Indicator: BROMODEOXYURIDINE INCORP, Metabolic Activation: NONE, Method: FLOW CYTOMETRIC ANALYSIS); “inactive; negative” (Test System: UDS RAT HEPATOCYTES, Strain/Indicator: THY INCORP, Metabolic Activation: NONE, Method: AUTORADIOGRAPHY); “inactive; negative” (Test System: UDS RAT HEPATOCYTES, Strain/Indicator: THY INCORP, Metabolic Activation: NONE, Method: LIQUID SCINTILLATION COUNTING).

On to `Nc1cc(S(=O)(=O)[O-])cc2c1C(=O)/C(=N\Nc1ccc(-c3ccc(N/N=C4\C(=O)c5c(N)cc(S(=O)(=O)[O-])cc5C=C4S(=O)(=O)[O-])c(O)c3)cc1O)C(S(=O)(=O)[O-])=C2.[Cu].[Cu].[Na+].[Na+].[Na+].[Na+]`, for which the mutagenic call (Test System: AMES SALMONELLA TYPHIMURIUM, Strain/Indicator: TA98, Metabolic Activation: HAMSTER, LIVER, S-9, AROCLOR 1254 (10%), Method: PREINCUBATION) is “inactive; negative”; the mutagenic call under setting [1] is “inactive; negative”; the mutagenic call (Test System: AMES SALMONELLA TYPHIMURIUM, Strain/Indicator: TA98, Metabolic Activation: RAT, LIVER, S-9, AROCLOR 1254 (10%), Method: PREINCUBATION) is “inactive; negative”; the mutagenic call (Test System: AMES SALMONELLA TYPHIMURIUM, Strain/Indicator: TA100, Metabolic Activation: HAMSTER, LIVER, S-9, AROCLOR 1254 (10%), Method: PREINCUBATION) was “inactive; negative”; the mutagenic call under setting [2] was “inactive; negative”; the mutagenic call (Test System: AMES SALMONELLA TYPHIMURIUM, Strain/Indicator: TA100, Metabolic Activation: RAT, LIVER, S-9, AROCLOR 1254 (10%), Method: PREINCUBATION) is “inactive; negative”. Also, the mutagenic call runs as follows: (Test System: AMES SALMONELLA TYPHIMURIUM, Strain/Indicator: TA1535, Metabolic Activation: HAMSTER, LIVER, S-9, AROCLOR 1254 (10%), Method: PREINCUBATION) “inactive; negative”; (Test System: AMES SALMONELLA TYPHIMURIUM, Strain/Indicator: TA1535, Metabolic Activation: NONE, Method: PREINCUBATION) “inactive; negative”; (Test System: AMES SALMONELLA TYPHIMURIUM, Strain/Indicator: TA1535, Metabolic Activation: RAT, LIVER, S-9, AROCLOR 1254 (10%), Method: PREINCUBATION) “inactive; negative”; (Test System: AMES SALMONELLA TYPHIMURIUM, Strain/Indicator: TA1537, Metabolic Activation: HAMSTER, LIVER, S-9, AROCLOR 1254 (10%), Method: PREINCUBATION) “inactive; negative”; (Test System: AMES SALMONELLA TYPHIMURIUM, Strain/Indicator: TA1537, Metabolic Activation: NONE, Method: PREINCUBATION) “inactive; negative”; (Test System: AMES SALMONELLA TYPHIMURIUM, Strain/Indicator: TA1537, Metabolic Activation: RAT, LIVER, S-9, AROCLOR 1254 (10%), Method: PREINCUBATION) “inactive; negative”. Also, the mutagenic call under setting [3] was “inactive; negative”.

Take `CCOC(=O)NC`: the mutagenic call under setting [4] was “inactive; negative” and the mutagenic call under setting [5] is “active; positive”.
